The values that follow come from US20140243302A1, “BRIDGED BICYCLIC COMPOUNDS FOR THE TREATMENT OF BACTERIAL INFECTIONS” (priority 2011, published 2014).

Format in all cases: cell-based
Experiment [1] deals with Escherichia coli ATCC 25922. As to the kind of experiment: MIC assay, modified agar dilution (CLSI), E. coli ATCC 25922. As for the experimental part: (§1) The potency of antibacterial agents was measured using the Minimal Inhibitory Concentration (MIC) assay. The assay measures the ability of test agents to inhibit the growth of bacteria on agar-containing medium.
(§2) The bacterial test strains used were exemplified by Staphylococcus aureus Smith, Enterococcus faecium A2373, Streptococcus pneumoniae IID554, and Escherichia coli ATCC 25922. All strains were maintained as frozen stocks held at −80° C. in skim milk. Other bacterial test strains are well known to those skilled in the art and can be used for testing.
(§3) Mueller Hinton Agar (MHA BBL; Becton Dickinson and Company, Sparks, Md.) was used as the medium. MHA was supplemented with 5% defibrinated horse blood (DHB; Nippon Biotest Laboratories inc.) to support the growth of S. pneumoniae and E. faecium.
(§4) MIC values were determined using a modified agar dilution procedure described by the Clinical and Laboratory Standards Institute (CLSI; Methods for Dilution Antimicrobial Susceptibility Tests for Bacteria That Grow Aerobically; Approved Standard—Eighth Edition. CLSI document M07-A8 [ISBN 1-56238-689-1]. Clinical and Laboratory Standards Institute, 940 West Valley Road, Suite 1400, Wayne, Pa. 19087-1898 USA, 2009).
Stock solutions (6.4 mgmL) of test compounds were prepared in 100% ultrapure dimethyl sulfoxide (DMSO; source) on the day of the assay. […]
On the technique in general: Agar dilution tests growth on a series of plates holding different concentrations.

Experiment [2] has as its system Streptococcus pneumoniae IID554. As to the kind of experiment: MIC assay, modified agar dilution (CLSI), S. pneumoniae IID554. The settings on record: agar dilution, MHA with 5% defibrinated horse blood. As for the experimental part: as §1, §2, §3, §4
(§5) Stock solutions (6.4 mgmL) of test compounds were prepared in 100% ultrapure dimethyl sulfoxide (DMSO; source) on the day of the assay. Subsequent serial dilutions were performed to generate solutions with concentrations ranging from 6.4 to 0.0002 mgmL in 100% DMSO.
Agar medium containing test compound was prepared by adding the dilutions of antimicrobial solution to molten MHA at a temperature of 45-50° C. The agar and antimicrobial solution were mixed thoroughly, poured into petri dishes, and allowed to solidify at room temperature. The final concentration of test compounds in the MHA medium ranged from 128 to 0.001 μg/mL with two-fold dilutions. MHA plates lacking antibacterial compound were used for growth controls.
Prior to susceptibility testing, the bacterial isolates were removed from frozen storage, thawed at room temperature, sub-cultured to MHA medium and incubated overnight at 35° C. S. pneumoniae and E. faecium were subcultured on MHA supplemented with 5% DHB at 35° C. with […]. Colonies from each plate were suspended in normal saline. This suspension was adjusted to the turbidity of a 0.5 McFarland standard, 1-2×10^8 colony forming units (CFU) per mL, and diluted 100-fold to 1-2×10^6 CFUmL.
Suspensions of bacterial cultures were applied to the surface of MHA plates containing test compound as well as to a growth control plate lacking test compound using an inoculum-replicating device with 4 mm pins. The replicating device applied 5 uL of the bacterial suspension such that each spot contained approx. 1×10^4 CFU. […]

The test system of another experiment is A_bau_IID876. As to the kind of experiment: MIC assay, modified agar dilution (CLSI), A_bau_IID876. As for the experimental part: as §1, §3, §4, §5
(§6) Agar medium containing test compound was prepared by adding the dilutions of antimicrobial solution to molten MHA at a temperature of 45-50° C. […]

The test system of experiment [3] is Pseudomonas aeruginosa PAO1. As to the kind of experiment: MIC assay, modified agar dilution (CLSI), P. aeruginosa PAO1. As for the experimental part: as §1, §3, §4, §5, §6
The subject of experiment [4] is Staphylococcus aureus Smith. As to the kind of experiment: MIC assay, modified agar dilution (CLSI), S. aureus Smith. To be noted: Staphylococcus aureus, agar dilution, 35° C., 16-20 hr; lowest concentration that completely inhibited growth; read-out: S_aureus_Smith_WT_MIC. An outline of the steps:
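Agar dilution per CLSI on Mueller Hinton agar (plus 5% horse blood for S. pneumoniae and E. faecium), compound 128 to 0.001 μg/mL in two-fold steps. Spots of ~1×10^4 CFU incubated at 35 °C for 16-20 hr before MIC scoring.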

Compound `COc1ccc2ncc(F)c(CCC34CCC(NCc5ccc6c(n5)NC(=O)CO6)(CC3)CO4)c2n1.Cl` [Example 18, 6-((1-(2-(3-Fluoro-6-methoxy-1,5-naphthyridin-4-yl)ethyl)-2-oxabicyclo[2.2.2]octan-4-ylamino)methyl)-2H-pyrido[3,2-b][1,4]oxazin-3(4H)-one Hydrochloride] gave an E_coli_ATCC25922_WT_MIC in experiment [1] of 1.00 µg/mL. This compound returned a Strep_Pn_IID554_WT_MIC in experiment [2] of 0.0630 µg/mL. The compound further yielded an A_bau_IID876_WT_MIC in the experiment on A_bau_IID876 of 0.500 µg/mL. The P_ae_PAO1_WT_MIC in experiment [3] came to 4.00 µg/mL. Further, in experiment [4], the MIC came to 0.016 µg/mL.
